Data taken from patent publication US20230293560A1, “METHOD FOR MODULATING THE BLADDER MICROBIOME TO IMPROVE BLADDER HEALTH” (Kimberly-Clark Worldwide, Inc., priority 2020, published 2023).

Key:
L. jensenii = experiment: High throughput assay screening of prebiotics; type: cell-based, Lactobacillus jensenii; set-up: key: ++: if growth and fermentation was equal to or greater than the positive control; +: if growth and fermentation was less than the positive control; +: if weak or no growth or fermentation; +^2: Bacteria demonstrated growth but no fermentation on the prebiotic; conditions: 2% w/v prebiotic in API 50 CHL media; for growth and fermentation vs positive control, Lj-2: L. jensenii KC17-4347-1, Bladder
Protocol: (§1) Most of the prebiotic compounds were initially tested in a high throughput assay screening process, described further in the Test Methods section herein, but three prebiotics (as noted in Table 3) were tested using a plate assay screening process as described in the Test Methods section herein. The prebiotics were tested against the commensal bacterial species of Lactobacillus crispatus, Lactobacillus gasseri, and Lactobacillus jensenii and against the pathogenic bacterial species of Streptococcus anginosus and Enterococcus faecalis as shown in Table 2. The bacterial species were taken from different sources, listed as culture collection, bladder, and vagina.
(§2) The results of the assay plate screening of the prebiotic compounds of Table 1 against the bacterial species of Table 2 is documented in Table 3 with the results being described by the following legend: • ++ if growth and fermentation was equal to or greater than the positive control • + if growth and fermentation was less than the positive control • […] if weak or no growth or fermentation • NT if not tested Some codes were not tested based on the use or non-use by the bacteria, as a way to efficiently move through the assay plate screening to the competition assay, described below.
(§3) • 1. Create a 2% w/v stock of prebiotic or positive control (glucose/dextrose) to be tested in API 50 CHL media (Biomerieux, Marcy-I'Étoile, France). API 50 CHL media contains minimal amounts of carbon for growth, and a bromocresol purple as a pH indicator of fermentation. Filter sterilize media with a […]. Store at 4-6° C. until use. • 2. Add 180 μL of media containing the prebiotic to a sterile, flat bottom 96-well microtiter plate (Corning, Corning, NY). • 3. From a freezer stock subculture the bacteria twice into De Man, Rogosa and Sharpe (MRS) broth (BD Difco, Becton Dickinson, Franklin Lakes, NJ), 37° C., stationary, anaerobic, overnight. • 4. From the last subculture, plate onto an MRS agar plate (Teknova, Hollister, CA) and grow 37° C., stationary, anaerobic, overnight. • 5. Create a bacterial suspension by using a sterile tipped swab to transfer colonies of bacteria into a PBS suspension blank to a 0.5 MacFarland (S. anginosus or E. faecalis) or a 1 MacFarland (Lactobacillus species) from the MRS agar plate. • 6. Enumerate the starting culture. • 7. Inoculate the media alone and media containing the prebiotic or positive control with 20 μL of the bacterial suspension. • 8. Place the plate into a spectrophotometer (Molecular Devices, San Jose, CA) and read the plate every 20 minutes for 24-48 hours. Read wavelengths (OD 430, OD 590, and OD 660). A color change to yellow caused by a drop in pH will be read by an increase in the OD430 value and a decrease in the OD590 value and is indicative of bacterial fermentation. An increase in OD660 values is indicative of an increase in turbidity and bacterial growth.

S. anginosus = experiment: High throughput assay screening of prebiotics; type: cell-based, Streptococcus anginosus; set-up: key: ++: if growth and fermentation was equal to or greater than the positive control; +: if growth and fermentation was less than the positive control; +: if weak or no growth or fermentation; +^2: Bacteria demonstrated growth but no fermentation on the prebiotic; conditions: 2% w/v prebiotic in API 50 CHL media; for growth and fermentation vs positive control, Sa-2: S. anginosus KC18-1131-3B, Bladder; for growth and fermentation vs positive control, Sa-1: S. anginosus ATCC 33397, Culture Collection
Protocol: as §1, §2, §3

L. crispatus = experiment: High throughput assay screening of prebiotics; type: cell-based, Lactobacillus crispatus; set-up: key: ++: if growth and fermentation was equal to or greater than the positive control; +: if growth and fermentation was less than the positive control; +: if weak or no growth or fermentation; +^2: Bacteria demonstrated growth but no fermentation on the prebiotic; conditions: 2% w/v prebiotic in API 50 CHL media; for growth and fermentation vs positive control, Lc-2: L. crispatus KC16-7134-3C, Bladder; for growth and fermentation vs positive control, Lc-3: L. crispatus KC18-1173-1, Bladder; for growth and fermentation vs positive control, Lc-4: L. crispatus KC18-1174-1, Vagina; for growth and fermentation vs positive control, Lc-1: L. crispatus ATCC 33820, Culture Collection
Protocol: as §1, §2, §3

L. gasseri = experiment: High throughput assay screening of prebiotics; type: cell-based, Lactobacillus gasseri; set-up: key: ++: if growth and fermentation was equal to or greater than the positive control; +: if growth and fermentation was less than the positive control; +: if weak or no growth or fermentation; +^2: Bacteria demonstrated growth but no fermentation on the prebiotic; conditions: 2% w/v prebiotic in API 50 CHL media; for growth and fermentation vs positive control, Lg-1: L. gasseri KC16-7135-1, Bladder; for growth and fermentation vs positive control, Lg-2: L. gasseri KC16-7171-1, Bladder
Protocol: as §1, §2, §3

[1] = tested on: commensal and pathogenic bacterial species; experiment: Prebiotic screening, summary in words across species; type: cell-based; conditions: commensal (L. crispatus, L. gasseri, L. jensenii) and pathogenic (S. anginosus, E. faecalis) species
In short: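 Prebiotics at 2% w/v stock in API 50 CHL medium with bromocresol purple, inoculated with bacteria and read every 20 min for 24-48 h at OD430/590 (fermentation) and OD660 (growth), scored against a glucose control. Some tested on MRS-based agar with the prebiotic in place of glucose; competition assay with L. crispatus and S. anginosus incubated 48 h anaerobically at 37 °C, then enumerated on MRS and TSA.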

E. faecalis = experiment: High throughput assay screening of prebiotics; type: cell-based, Enterococcus faecalis; set-up: key: ++: if growth and fermentation was equal to or greater than the positive control; +: if growth and fermentation was less than the positive control; +: if weak or no growth or fermentation; +^2: Bacteria demonstrated growth but no fermentation on the prebiotic; conditions: 2% w/v prebiotic in API 50 CHL media; for growth and fermentation vs positive control, Ef-2: E. faecalis KC16-7171-3, Bladder; for growth and fermentation vs positive control, Ef-3: E. faecalis KC17-3969-2B, Bladder; for growth and fermentation vs positive control, Ef-4: E. faecalis KC17-4331-3, Bladder; for growth and fermentation vs positive control, Ef-1: E. faecalis ATCC BAA-2128, Culture Collection
Protocol: as §1, §2, §3

Molecule | growth and fermentation vs positive control, Lj-1 (L. jensenii; L. jensenii KC17-4297-18, Bladder) | growth and fermentation vs positive control, Sa-2 (S. anginosus) | growth and fermentation vs positive control, Lc-2 (L. crispatus) | growth and fermentation vs positive control, Lc-3 (L. crispatus) | growth and fermentation vs positive control, Lc-4 (L. crispatus) | growth and fermentation vs positive control, Lg-1 (L. gasseri) | growth and fermentation vs positive control, Lg-2 (L. gasseri) | growth and fermentation vs positive control, Lg-3 (L. gasseri; L. gasseri KC18-1131-2, Bladder) | growth and fermentation vs positive control, Lg-4 (L. gasseri; L. gasseri KC18-1142-2, Bladder) | overall outcome of the screening of Table 3, in words [1] | growth and fermentation vs positive control, Ef-2 (E. faecalis) | growth and fermentation vs positive control, Ef-3 (E. faecalis) | growth and fermentation vs positive control, Ef-4 (E. faecalis) | growth and fermentation vs positive control, Lj-2 (L. jensenii) | growth and fermentation vs positive control, Sa-1 (S. anginosus) | growth and fermentation vs positive control, Lc-1 (L. crispatus) | growth and fermentation vs positive control, Ef-1 (E. faecalis)
OC[C@H]1O[C@@H](O[C@H]2[C@H](O)[C@@H](O)[C@H](O)O[C@@H]2CO)[C@H](O)[C@@H](O)[C@@H]1O [D-Cellobiose] | + | ++ | ++ | + | + | + | ++ | ++ | ++ | able to provide growth on the commensal bacterial species, but also provided growth on the pathogenic bacterial species | ++ | ++ | ++ | – | – | – | –
OCc1ccccc1O[C@@H]1O[C@H](CO)[C@@H](O)[C@H](O)[C@H]1O [Salicin] | – | ++ | – | – | – | ++ | – | – | – | able to provide growth on the commensal bacterial species, but also provided growth on the pathogenic bacterial species | ++ | ++ | ++ | ++ | ++ | ++ | ++
Maltotriose | – | ++ | ++ | ++ | ++ | ++ | ++ | – | – | able to provide growth on the commensal bacterial species, but also provided growth on the pathogenic bacterial species | ++ | ++ | ++ | ++ | ++ | ++ | ++
